Values quoted from earlier work as cited in patent publication US20170027865A1, “Dry Pharmaceutical Compositions for Topical Delivery of Oral Medications, Nasal Delivery and to Treat Ear Disorders” (CMPD LICENSING LLC, priority 2013, published 2017).

Legend:
Bacteroides fragilis = conditions: Gram: anaer
Clostridium difficile = conditions: Gram: anaer
Clostridium perfringens = conditions: Clostridium perfringens; Gram: anaer
Chlamydia pneumoniae = conditions: Gram: n/a
Chlamydia psittaci = conditions: Chlamydia psittaci; Gram: n/a
Chlamydia trachomatis = conditions: Gram: n/a
Mycoplasma pneumoniae = conditions: Gram: n/a
Acinetobacter baumannii = conditions: Gram: neg
[1] = tested on: Acinetobacter calcoaceticus; conditions: Gram: neg
Acinetobacter lwoffii = conditions: Gram: neg
Bartonella bacilliformis = conditions: Gram: neg
Bordetella pertussis = conditions: Gram: neg
Brucella species = conditions: Brucella species; Gram: neg
Campylobacter jejuni = conditions: Gram: neg
Citrobacter diversus = conditions: Gram: neg
Citrobacter freundii = conditions: Gram: neg
Enterobacter aerogenes = conditions: Gram: neg
Enterobacter cloacae = conditions: Gram: neg
Enterobacter sakazakii = conditions: Gram: neg
Escherichia coli = conditions: Gram: neg
Francisella tularensis = conditions: Francisella tularensis; Gram: neg
Haemophilus influenzae = conditions: Gram: neg
[2] = tested on: Klebsiella (Calymmatobacterium) granulomatis; conditions: Gram: neg
Klebsiella oxytoca = conditions: Gram: neg
Klebsiella pneumoniae = conditions: Gram: neg
Legionella pneumophila = conditions: Legionella pneumophila; Gram: neg
Moraxella catarrhalis = conditions: Gram: neg
Morganella morganii = conditions: Gram: neg
Neisseria meningitidis = conditions: Gram: neg
Proteus mirabilis = conditions: Gram: neg
Proteus vulgaris = conditions: Gram: neg
Providencia rettgeri = conditions: Gram: neg
Providencia stuartii = conditions: Gram: neg
Pseudomonas aeruginosa = conditions: Gram: neg
Pseudomonas fluorescens = conditions: Gram: neg
Rickettsiae = conditions: Rickettsiae; Gram: neg
Serratia marcescens = conditions: Gram: neg
Vibrio cholerae = conditions: Gram: neg
Corynebacterium jeikeium = conditions: Gram: pos
Enterococcus faecalis = conditions: Gram: pos
Enterococcus faecium = conditions: Gram: pos
[3] = tested on: Methicillin Resistant Staph aureus (MRSA); conditions: Gram: pos
[4] = tested on: Staphylococcus aureus (MSSA); conditions: Gram: pos
[5] = tested on: Staphylococcus epidermidis; conditions: Gram: pos
Streptococcus agalactiae = conditions: Gram: pos
Streptococcus pneumoniae = conditions: Gram: pos
Streptococcus pyogenes = conditions: Gram: pos
Haemophilus ducreyi = conditions: Gram: neg
Neisseria gonorrhoeae = conditions: Gram: neg
Shigella boydii = conditions: Gram: neg
Shigella dysenteriae = conditions: Gram: neg
Shigella flexneri = conditions: Gram: neg
Shigella sonnei = conditions: Gram: neg
Yersinia pestis = conditions: Yersinia pestis; Gram: neg
[6] = tested on: Corynebacterium urealyticum; conditions: Gram: pos
Diphtheroids = conditions: Gram: pos
Peptostreptococcus = conditions: Gram: pos
[7] = tested on: Viridans group streptococci; conditions: Gram: pos
[8] = tested on: Haemophilus parainfluenzae; conditions: Gram: neg

Which Expected coverage (Bacteroides fragilis) does the source give for `CC[C@H]1OC(=O)[C@H](C)[C@@H](O[C@H]2C[C@@](C)(OC)[C@@H](O)[C@H](C)O2)[C@H](C)[C@@H](O[C@@H]2O[C@H](C)C[C@H](N(C)C)[C@H]2O)[C@](C)(O)C[C@@H](C)CN(C)[C@H](C)[C@@H](O)[C@]1(C)O` [Azithromycin, azithromycin] here?
Its Expected coverage is “no”.

And the Expected coverage (Clostridium difficile)?
Its Expected coverage is “no”.

And the Expected coverage (Clostridium perfringens)?
Its Expected coverage is “no”.

What about the Expected coverage (Chlamydia pneumoniae) of the same molecule?
Its Expected coverage is “yes”.

What about the Expected coverage (Chlamydia psittaci) of the same molecule?
The Expected coverage was “yes”.

And the Expected coverage (Chlamydia trachomatis)?
The Expected coverage was “yes”.

And the Expected coverage (Mycoplasma pneumoniae)?
Its Expected coverage is “yes”.

And the Expected coverage (Acinetobacter baumannii)?
Its Expected coverage is “no”.

And the Expected coverage [1]?
The Expected coverage was “no”.

And the Expected coverage (Acinetobacter lwoffii)?
Its Expected coverage is “no”.

And the Expected coverage (Bartonella bacilliformis)?
Its Expected coverage is “yes”.

What about the Expected coverage (Bordetella pertussis) of the same molecule?
The Expected coverage was “yes”.

And the Expected coverage (Brucella species)?
The Expected coverage was “no”.

What about the Expected coverage (Campylobacter jejuni) of the same molecule?
The Expected coverage was “yes”.

What about the Expected coverage (Citrobacter diversus) of the same molecule?
Its Expected coverage is “no”.

What about the Expected coverage (Citrobacter freundii) of the same molecule?
Its Expected coverage is “no”.

And the Expected coverage (Enterobacter aerogenes)?
The Expected coverage was “no”.

What about the Expected coverage (Enterobacter cloacae) of the same molecule?
Its Expected coverage is “no”.

What about the Expected coverage (Enterobacter sakazakii) of the same molecule?
The Expected coverage was “no”.

What about the Expected coverage (Escherichia coli) of the same molecule?
The Expected coverage was “no”.

What about the Expected coverage (Francisella tularensis) of the same molecule?
Its Expected coverage is “no”.

What about the Expected coverage (Haemophilus influenzae) of the same molecule?
The Expected coverage was “yes”.

What about the Expected coverage [2] of the same molecule?
The Expected coverage was “no”.

And the Expected coverage (Klebsiella oxytoca)?
Its Expected coverage is “no”.

What about the Expected coverage (Klebsiella pneumoniae) of the same molecule?
The Expected coverage was “no”.

What about the Expected coverage (Legionella pneumophila) of the same molecule?
The Expected coverage was “yes”.

What about the Expected coverage (Moraxella catarrhalis) of the same molecule?
The Expected coverage was “yes”.

And the Expected coverage (Morganella morganii)?
The Expected coverage was “no”.

What about the Expected coverage (Neisseria meningitidis) of the same molecule?
Its Expected coverage is “yes”.

What about the Expected coverage (Proteus mirabilis) of the same molecule?
The Expected coverage was “no”.

What about the Expected coverage (Proteus vulgaris) of the same molecule?
Its Expected coverage is “no”.

And the Expected coverage (Providencia rettgeri)?
The Expected coverage was “no”.

What about the Expected coverage (Providencia stuartii) of the same molecule?
The Expected coverage was “no”.

What about the Expected coverage (Pseudomonas aeruginosa) of the same molecule?
The Expected coverage was “no”.

And the Expected coverage (Pseudomonas fluorescens)?
The Expected coverage was “no”.

What about the Expected coverage (Rickettsiae) of the same molecule?
Its Expected coverage is “yes”.

And the Expected coverage (Serratia marcescens)?
Its Expected coverage is “no”.

What about the Expected coverage (Vibrio cholerae) of the same molecule?
The Expected coverage was “yes”.

What about the Expected coverage (Corynebacterium jeikeium) of the same molecule?
The Expected coverage was “no”.

What about the Expected coverage (Enterococcus faecalis) of the same molecule?
The Expected coverage was “no”.

What about the Expected coverage (Enterococcus faecium) of the same molecule?
Its Expected coverage is “no”.

What about the Expected coverage [3] of the same molecule?
Its Expected coverage is “no”.

And the Expected coverage [4]?
Its Expected coverage is “yes”.

What about the Expected coverage [5] of the same molecule?
Its Expected coverage is “yes”.

What about the Expected coverage (Streptococcus agalactiae) of the same molecule?
Its Expected coverage is “yes”.

And the Expected coverage (Streptococcus pneumoniae)?
The Expected coverage was “yes”.

What about the Expected coverage (Streptococcus pyogenes) of the same molecule?
Its Expected coverage is “yes”.

Which Expected coverage (Candida species) does the source give for `C[C@@H]1[C@H](O)[C@@H](C)/C=C/C=C/CC/C=C/C=C/C=C/C=C/C(O[C@H]2O[C@H](C)[C@@H](O)[C@H](N)[C@@H]2O)CC2O[C@](O)(CC(O)C(O)CCC(O)CC(O)CC(O)CC(=O)O[C@H]1C)CC(O)C2C(=O)O` (some centres unmarked) [Nystatin, nystatin] here?
Its Expected coverage is “yes”.

Which results are given for `NC[C@H]1O[C@H](O[C@H]2[C@H](O)[C@@H](O[C@H]3O[C@H](CO)[C@@H](O)[C@H](N)[C@H]3O)[C@H](N)C[C@@H]2N)[C@H](N)C[C@@H]1O` [Tobramycin, tobramycin]?
Expected coverage (Bacteroides fragilis): no; Expected coverage (Clostridium difficile): no; Expected coverage (Clostridium perfringens): no; Expected coverage (Chlamydia pneumoniae): no; Expected coverage (Chlamydia psittaci): no; Expected coverage (Chlamydia trachomatis): no; Expected coverage (Mycoplasma pneumoniae): no; Expected coverage (Acinetobacter baumannii): no; Expected coverage [1]: no; Expected coverage (Acinetobacter lwoffii): no; Expected coverage (Bordetella pertussis): no; Expected coverage (Campylobacter jejuni): yes; Expected coverage (Citrobacter diversus): yes; Expected coverage (Citrobacter freundii): yes; Expected coverage (Enterobacter aerogenes): yes; Expected coverage (Enterobacter cloacae): yes; Expected coverage (Enterobacter sakazakii): yes; Expected coverage (Escherichia coli): yes; Expected coverage (Haemophilus ducreyi): yes; Expected coverage (Haemophilus influenzae): yes; Expected coverage [2]: yes; Expected coverage (Klebsiella oxytoca): yes; Expected coverage (Klebsiella pneumoniae): yes; Expected coverage (Legionella pneumophila): no; Expected coverage (Moraxella catarrhalis): yes; Expected coverage (Neisseria gonorrhoeae): no; Expected coverage (Neisseria meningitidis): no; Expected coverage (Proteus mirabilis): yes; Expected coverage (Proteus vulgaris): yes; Expected coverage (Pseudomonas aeruginosa): yes; Expected coverage (Pseudomonas fluorescens): yes; Expected coverage (Serratia marcescens): yes; Expected coverage (Shigella boydii): yes; Expected coverage (Shigella dysenteriae): yes; Expected coverage (Shigella flexneri): yes; Expected coverage (Shigella sonnei): yes; Expected coverage (Vibrio cholerae): no; Expected coverage (Yersinia pestis): yes; Expected coverage (Corynebacterium jeikeium): no; Expected coverage [6]: no; Expected coverage (Diphtheroids): no; Expected coverage (Enterococcus faecalis): no; Expected coverage (Enterococcus faecium): no; Expected coverage [3]: no; Expected coverage (Peptostreptococcus): no; Expected coverage [4]: no; Expected coverage [5]: no; Expected coverage (Streptococcus agalactiae): no; Expected coverage (Streptococcus pneumoniae): no; Expected coverage (Streptococcus pyogenes): no; Expected coverage [7]: no

Which Expected coverage (Bacteroides fragilis) does the source give for colistimethate here?
Its Expected coverage is “no”.

And the Expected coverage (Clostridium difficile)?
Its Expected coverage is “no”.

What about the Expected coverage (Chlamydia pneumoniae) of the same molecule?
The Expected coverage was “no”.

What about the Expected coverage (Chlamydia psittaci) of the same molecule?
The Expected coverage was “no”.

What about the Expected coverage (Chlamydia trachomatis) of the same molecule?
Its Expected coverage is “no”.

What about the Expected coverage (Mycoplasma pneumoniae) of the same molecule?
Its Expected coverage is “no”.

And the Expected coverage (Bordetella pertussis)?
Its Expected coverage is “no”.

What about the Expected coverage (Brucella species) of the same molecule?
Its Expected coverage is “no”.

And the Expected coverage (Enterobacter aerogenes)?
Its Expected coverage is “yes”.

What about the Expected coverage (Enterobacter cloacae) of the same molecule?
The Expected coverage was “yes”.

What about the Expected coverage (Enterobacter sakazakii) of the same molecule?
Its Expected coverage is “yes”.

And the Expected coverage (Escherichia coli)?
Its Expected coverage is “yes”.

And the Expected coverage [8]?
The Expected coverage was “no”.

What about the Expected coverage [2] of the same molecule?
The Expected coverage was “yes”.

What about the Expected coverage (Klebsiella oxytoca) of the same molecule?
The Expected coverage was “yes”.

And the Expected coverage (Klebsiella pneumoniae)?
Its Expected coverage is “yes”.

What about the Expected coverage (Legionella pneumophila) of the same molecule?
Its Expected coverage is “no”.

What about the Expected coverage (Moraxella catarrhalis) of the same molecule?
Its Expected coverage is “no”.

What about the Expected coverage (Neisseria gonorrhoeae) of the same molecule?
The Expected coverage was “no”.

And the Expected coverage (Neisseria meningitidis)?
Its Expected coverage is “no”.

And the Expected coverage (Proteus mirabilis)?
Its Expected coverage is “no”.

What about the Expected coverage (Proteus vulgaris) of the same molecule?
Its Expected coverage is “no”.

And the Expected coverage (Providencia rettgeri)?
Its Expected coverage is “no”.

And the Expected coverage (Providencia stuartii)?
Its Expected coverage is “no”.

What about the Expected coverage (Pseudomonas aeruginosa) of the same molecule?
The Expected coverage was “yes”.

And the Expected coverage (Pseudomonas fluorescens)?
The Expected coverage was “yes”.

And the Expected coverage (Serratia marcescens)?
The Expected coverage was “no”.

And the Expected coverage (Vibrio cholerae)?
Its Expected coverage is “no”.

And the Expected coverage (Corynebacterium jeikeium)?
The Expected coverage was “no”.

What about the Expected coverage [6] of the same molecule?
The Expected coverage was “no”.

And the Expected coverage (Diphtheroids)?
Its Expected coverage is “no”.

What about the Expected coverage (Enterococcus faecalis) of the same molecule?
The Expected coverage was “no”.

And the Expected coverage (Enterococcus faecium)?
Its Expected coverage is “no”.

What about the Expected coverage [3] of the same molecule?
Its Expected coverage is “no”.

What about the Expected coverage (Peptostreptococcus) of the same molecule?
The Expected coverage was “no”.

And the Expected coverage [4]?
Its Expected coverage is “no”.

What about the Expected coverage [5] of the same molecule?
Its Expected coverage is “no”.

What about the Expected coverage (Streptococcus agalactiae) of the same molecule?
The Expected coverage was “no”.

And the Expected coverage (Streptococcus pneumoniae)?
The Expected coverage was “no”.

And the Expected coverage (Streptococcus pyogenes)?
Its Expected coverage is “no”.

What about the Expected coverage [7] of the same molecule?
The Expected coverage was “no”.
